From patent US6838249B2, “Neuroblastoma cell lines expressing the α2δ subunit of calcium channels and methods therefore” (priority 2001, dated 2005) come the findings set out here.

The term Ki denotes the dissociation constant of the complex between target and ligand, obtained from inhibition or displacement.

One experiment relates to IMR32 cells. In words: Differentiation of IMR32 cells with BrdU, density of [^3H]GBP binding sites. The experiment is classed as cell-based, human. Particulars: 10 μM BrdU for 10 to 12 days. How it is done: IMR32 cells, SK-N-MC cells and NG 108 cells as well as cells treated in culture with 10 μM of BrdU for 10 to 12 days were used. Cells were harvested and homogenates were made in HEPES/KOH buffer, pH 7.4. The homogenates were centrifuged for 15 min at 1000×g, and the supernatants were centrifuged at 40000×g for 15 min to obtain cell membranes.

Experiment [1] has as its system α2δ subunit of calcium channels. Particulars: 10 nM [^3H]GBP; for Ki: one-site binding model.

Read-outs that look alike come from different tables or passages of the source.

As to `O=c1[nH]c(=O)n([C@H]2C[C@H](O)[C@@H](CO)O2)cc1Br` [BrdU, 5-Bromo-2′-deoxyuridine], the “expression of [^3H]GBP binding sites” value in the experiment on IMR32 cells is reported as “increased”.

For `CSCC[C@H](N)C(=O)O` [L-methionine], the “inhibition of [^3H]GBP binding to IMR32 cell membranes” value in experiment [1] (varying concentrations (FIG. 3)) was “dose-dependently inhibited”. Further, the Ki stood at 30 nM in experiment [1] (read-out: Ki (nM) BrdU, differentiated (BrdU) IMR32 cell membranes) and 39 nM in experiment [1] (read-out: Ki (nM) Control, undifferentiated (Control) IMR32 cell membranes).
